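Tested at 5 concentrations; 48 h exposure; 96-well plates; endpoints linearly interpolated, else capped at highest concentration. GI50: concentration for 50% inhibition of growth. The concentration for full growth arrest is given as TGI.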
Key:
Assay in all cases: NCI tumour cell line growth inhibition, 48 h
SK-MEL-2 melanoma = tested on: SK-MEL-2 melanoma
K-562 leukemia = tested on: K-562 leukemia
NCI-H226 lung = tested on: NCI-H226 lung
UACC-62 melanoma = tested on: UACC-62 melanoma
HCT-116 colon = tested on: HCT-116 colon
NCI-H460 lung = tested on: NCI-H460 lung
HL-60(TB) leukemia = tested on: HL-60(TB) leukemia
SF-268 CNS = tested on: SF-268 CNS
KM12 colon = tested on: KM12 colon
SNB-75 CNS = tested on: SNB-75 CNS
SF-539 CNS = tested on: SF-539 CNS
SK-OV-3 ovarian = tested on: SK-OV-3 ovarian
SNB-19 CNS = tested on: SNB-19 CNS
HOP-92 NSCLC = tested on: HOP-92 NSCLC
UO-31 renal = tested on: UO-31 renal
M14 melanoma = tested on: M14 melanoma
EKVX NSCLC = tested on: EKVX NSCLC
CCRF-CEM leukemia = tested on: CCRF-CEM leukemia
RXF 393 renal = tested on: RXF 393 renal
IGROV1 ovarian = tested on: IGROV1 ovarian
SR leukemia = tested on: SR leukemia
TK-10 renal = tested on: TK-10 renal
A498 renal = tested on: A498 renal
HOP-62 NSCLC = tested on: HOP-62 NSCLC
HCT-15 colon = tested on: HCT-15 colon
NCI/ADR-RES ovarian = tested on: NCI/ADR-RES ovarian
U251 CNS = tested on: U251 CNS
MDA-MB-231 breast = tested on: MDA-MB-231 breast
DU-145 prostate = tested on: DU-145 prostate
RPMI-8226 leukemia = tested on: RPMI-8226 leukemia
NCI-H522 lung = tested on: NCI-H522 lung
CAKI-1 renal = tested on: CAKI-1 renal
SN12C renal = tested on: SN12C renal
SK-MEL-5 melanoma = tested on: SK-MEL-5 melanoma
MOLT-4 leukemia = tested on: MOLT-4 leukemia
UACC-257 melanoma = tested on: UACC-257 melanoma
LOX IMVI melanoma = tested on: LOX IMVI melanoma
PC-3 prostate = tested on: PC-3 prostate
HCC-2998 colon = tested on: HCC-2998 colon
T-47D breast = tested on: T-47D breast
NCI-H23 lung = tested on: NCI-H23 lung
ACHN renal = tested on: ACHN renal
MALME-3M melanoma = tested on: MALME-3M melanoma
OVCAR-5 ovarian = tested on: OVCAR-5 ovarian
OVCAR-4 ovarian = tested on: OVCAR-4 ovarian
SF-295 CNS = tested on: SF-295 CNS
COLO 205 colon = tested on: COLO 205 colon
786-0 renal = tested on: 786-0 renal
HS 578T breast = tested on: HS 578T breast
MDA-MB-435 = tested on: MDA-MB-435
OVCAR-8 ovarian = tested on: OVCAR-8 ovarian
OVCAR-3 ovarian = tested on: OVCAR-3 ovarian
A549 NSCLC = tested on: A549 NSCLC
SK-MEL-28 melanoma = tested on: SK-MEL-28 melanoma

In the case of `N#C/C(=C/C=C/c1cccc(Cl)c1)S(=O)c1ccccc1` (stereo not drawn), the GI50 (SK-MEL-2 melanoma) is reported as 1.62 µM, the TGI (SK-MEL-2 melanoma) is reported as 3.66 µM and the GI50 (K-562 leukemia) is reported as 0.301 µM. It also gave a TGI (K-562 leukemia) of 13.2 µM, a GI50 (NCI-H226 lung) of 1.14 µM and a TGI (NCI-H226 lung) of 3.68 µM. The GI50 (UACC-62 melanoma) was 1.14 µM, the TGI (UACC-62 melanoma) was 2.69 µM and the GI50 (HCT-116 colon) was 0.241 µM. For the same molecule, the TGI (HCT-116 colon) was 0.642 µM, the GI50 (NCI-H460 lung) was 0.474 µM and the TGI (NCI-H460 lung) was 2.51 µM. It also gave a GI50 (HL-60(TB) leukemia) of 0.285 µM, a TGI (HL-60(TB) leukemia) of 2.16 µM and a GI50 (SF-268 CNS) of 0.391 µM. It also gave a TGI (SF-268 CNS) of 2.14 µM, a GI50 (KM12 colon) of 0.321 µM and a TGI (KM12 colon) of 1.38 µM. The GI50 (SNB-75 CNS) was 1.2 µM, the TGI (SNB-75 CNS) was 3.82 µM and the GI50 (SF-539 CNS) was 0.281 µM. The TGI (SF-539 CNS) was 0.882 µM, the GI50 (SK-OV-3 ovarian) was 2.21 µM and the TGI (SK-OV-3 ovarian) was 10.2 µM. For the same molecule, the GI50 (SNB-19 CNS) was 0.684 µM, the TGI (SNB-19 CNS) was 2.52 µM and the GI50 (HOP-92 NSCLC) was 0.398 µM. The TGI (HOP-92 NSCLC) was 1.62 µM, the GI50 (UO-31 renal) was 0.358 µM and the TGI (UO-31 renal) was 1.71 µM. It also gave a GI50 (M14 melanoma) of 1.1 µM, a TGI (M14 melanoma) of 2.89 µM and a GI50 (EKVX NSCLC) of 0.803 µM. For the same molecule, the TGI (EKVX NSCLC) was 2.23 µM, the GI50 (CCRF-CEM leukemia) was 0.296 µM and the TGI (CCRF-CEM leukemia) was 1.21 µM. The GI50 (RXF 393 renal) was 0.233 µM, the TGI (RXF 393 renal) was 0.568 µM and the GI50 (IGROV1 ovarian) was 0.399 µM. The TGI (IGROV1 ovarian) was 1.71 µM, the GI50 (SR leukemia) was 0.227 µM and the TGI (SR leukemia) was 2.67 µM. It also gave a GI50 (TK-10 renal) of 0.359 µM, a TGI (TK-10 renal) of 1.32 µM and a GI50 (A498 renal) of 1.8 µM. The TGI (A498 renal) was 3.53 µM, the GI50 (HOP-62 NSCLC) was 0.326 µM and the TGI (HOP-62 NSCLC) was 1.13 µM. It also gave a GI50 (HCT-15 colon) of 0.197 µM, a TGI (HCT-15 colon) of 0.56 µM and a GI50 (NCI/ADR-RES ovarian) of 0.278 µM. It also gave a TGI (NCI/ADR-RES ovarian) of 0.859 µM, a GI50 (U251 CNS) of 0.361 µM and a TGI (U251 CNS) of 1.31 µM. For the same molecule, the GI50 (MDA-MB-231 breast) was 0.384 µM, the TGI (MDA-MB-231 breast) was 1.4 µM and the GI50 (DU-145 prostate) was 0.393 µM. The TGI (DU-145 prostate) was 1.56 µM, the GI50 (RPMI-8226 leukemia) was 0.339 µM and the TGI (RPMI-8226 leukemia) was 1 µM. It also gave a GI50 (NCI-H522 lung) of 0.251 µM, a TGI (NCI-H522 lung) of 0.804 µM and a GI50 (CAKI-1 renal) of 0.283 µM. The TGI (CAKI-1 renal) was 1.08 µM, the GI50 (SN12C renal) was 0.359 µM and the TGI (SN12C renal) was 1.42 µM. For the same molecule, the GI50 (SK-MEL-5 melanoma) was 1.79 µM, the TGI (SK-MEL-5 melanoma) was 3.61 µM and the GI50 (MOLT-4 leukemia) was 0.307 µM. The TGI (MOLT-4 leukemia) was 2.28 µM, the GI50 (UACC-257 melanoma) was 1.64 µM and the TGI (UACC-257 melanoma) was 3.16 µM. The GI50 (LOX IMVI melanoma) was 0.175 µM, the TGI (LOX IMVI melanoma) was 0.343 µM and the GI50 (PC-3 prostate) was 0.25 µM. It also gave a TGI (PC-3 prostate) of 0.867 µM, a GI50 (HCC-2998 colon) of 0.366 µM and a TGI (HCC-2998 colon) of 1.31 µM. The GI50 (T-47D breast) was 0.234 µM, the TGI (T-47D breast) was 1.11 µM and the GI50 (NCI-H23 lung) was 0.42 µM. For the same molecule, the TGI (NCI-H23 lung) was 1.74 µM, the GI50 (ACHN renal) was 0.34 µM and the TGI (ACHN renal) was 1.29 µM. It also gave a GI50 (MALME-3M melanoma) of 1.05 µM, a TGI (MALME-3M melanoma) of 2.69 µM and a GI50 (OVCAR-5 ovarian) of 0.391 µM. It also gave a TGI (OVCAR-5 ovarian) of 1.7 µM, a GI50 (OVCAR-4 ovarian) of 0.266 µM and a TGI (OVCAR-4 ovarian) of 1.16 µM. The GI50 (SF-295 CNS) was 1.3 µM, the TGI (SF-295 CNS) was 2.88 µM and the GI50 (COLO 205 colon) was 0.386 µM. It also gave a TGI (COLO 205 colon) of 1.31 µM, a GI50 (786-0 renal) of 0.308 µM and a TGI (786-0 renal) of 1.01 µM. For the same molecule, the GI50 (HS 578T breast) was 1.68 µM, the TGI (HS 578T breast) was 33.4 µM and the GI50 (MDA-MB-435) was 0.448 µM. For the same molecule, the TGI (MDA-MB-435) was 1.69 µM, the GI50 (OVCAR-8 ovarian) was 0.256 µM and the TGI (OVCAR-8 ovarian) was 0.629 µM. The GI50 (OVCAR-3 ovarian) was 0.253 µM, the TGI (OVCAR-3 ovarian) was 0.782 µM and the GI50 (A549 NSCLC) was 1.21 µM. The TGI (A549 NSCLC) was 3.12 µM, the GI50 (SK-MEL-28 melanoma) was 1.23 µM and the TGI (SK-MEL-28 melanoma) was 2.68 µM.

From PubChem BioAssay (NCI)
